# Where a chain is given by its changes, count along the chain named.
# Legend:
# [1] = biological target: T1, CAC C23V/C58V/C89S/C136V/C155V/C283S (C-less) mutant (Rattus norvegicus, UniProt P97521, C136V/C155V/C23V/C283S/C58V/C89S); assay: Transport assay in proteoliposomes, C-less CAC mutant; assay type: biochemical
# T1 construct: made in house; host or cells: E. coli C0214
# T1 sequence (P97521 1-301 C23V/C58V/C89S/C136V/C155V/C283S): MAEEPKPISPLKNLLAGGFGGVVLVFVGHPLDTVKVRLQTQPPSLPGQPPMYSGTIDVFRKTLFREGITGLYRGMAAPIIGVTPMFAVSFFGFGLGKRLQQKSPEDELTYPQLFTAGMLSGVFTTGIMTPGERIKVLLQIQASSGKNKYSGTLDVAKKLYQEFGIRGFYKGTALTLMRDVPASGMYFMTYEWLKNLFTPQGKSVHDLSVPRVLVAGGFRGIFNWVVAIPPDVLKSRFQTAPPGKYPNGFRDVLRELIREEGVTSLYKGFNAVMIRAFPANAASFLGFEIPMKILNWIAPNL
# Method: (§1) As previously described, the pMW7-WTratCAC recombinant plasmid was used for over-expressing the rat CAC [22]. The overlap extension method was used to introduce the mutations; in the main time, NdeI and HindIII restriction sites were also added using appropriate primers. The PCR products were purified by the QIAEX II Gel Extraction Kit (QIAGEN) and digested with NdeI and HindIII and then ligated into the pMW7. All mutations were verified by DNA sequencing. The resulting plasmid constructs were transformed into E. coli C0214. Overexpression, inclusion body fraction preparation, and purification of the CAC proteins were performed as previously described.
# (§2) As previously described, recombinant CAC (WT and mutants) and ORC1 proteins were used for proteoliposome formation. For experiments with native CAC, ORC1, or ANT proteins, rat liver mitochondria, or HeLa cell mitochondria, the latter for the CAC alone, were first purified using the standard procedure of cell disruption and differential centrifugation. Then proteins were extracted using 3% Triton X-100 and reconstituted as described for the recombinant proteins. The concentration of intraliposomal carnitine and ornithine was 15 mM and 30 mM, respectively, in all samples.
# (§3) To test the transport activity of the CAC, 550 μL of proteoliposomes was passed through a Sephadex G-75 column to remove the external substrate. Six hundred μL of the turbid eluate was collected, divided into samples of 100 μL each, and used for transport measurement by the inhibitor-stop method. Transport was started by adding 0.1 mM [^3H]carnitine ([^3H]ornitine or [^3H]ATP) to proteoliposome samples and stopped with 1.5 mM NEM (N-ethylmaleimide) at the indicated time interval. In the control samples, NEM was added with the labeled substrate at time zero. Transport rates were measured in 10 min, i.e., within the initial linear range of the time course, at 25 °C. After terminating the transport reaction, the external substrate was removed by chromatography on the Sephadex G-75 column, and the intraliposomal radioactivity was measured. The experimental values were corrected by subtracting the controls.
# Figure 3 Identification of residue responsible for itaconate inhibition. (a) Dose–response analysis of the Cys mutants of CAC for the inhibition by itaconate was performed. Transport activity of the WT (○), C136A (●), C155A (Δ), C23V/C58V/C89S/C155V/C283S (▲), and C23V/C58V/C89S/C136V/C155V/C283S (□) was measured by adding 0.1 mM [^3H]carnitine after treatment by itaconate at the indicated concentrations. Transport activity (µmol/10 min/mg) is: WT 1.80 ± 0.31; C136A 0.91 ± 0.10; C155A 1.00 ± 0.17; C23V/C58V/C89S/C155V/C283S 1.02 ± 0.159; C23V/C58V/C89S/C136V/C155V/C283S 0.71 ± 0.22. (b) Dose–response analysis of proteoliposomes reconstituted native (○) or recombinant ORC (●) incubated with itaconate at the indicated concentrations. Transport activity was measured by adding 0.1 [^3H]ornithine, respectively, as described in Materials and Methods. The data are expressed as a percent of the controls (no addition of itaconate) and are means ± SD from three independent experiments.
# Figure 4 Lysine contribution to CAC inhibition by itaconate. Protection of PLP (pyridoxal phosphate) from inhibition by itaconate on C-less CAC was carried out. C-less mutant (i.e., C23V/C58V/C89S/C136V/C155V/C283S) was reconstituted into proteoliposomes and treated or not treated with 30 mM PLP for 10 min (“Contr” or “PLP” column, respectively). […]
# recombinant CAC (WT) = biological target: T2, recombinant CAC (WT) (Rattus norvegicus, UniProt P97521); assay: [3H]carnitine/carnitine antiport in proteoliposomes reconstituted with recombinant WT CAC; assay type: biochemical; conditions: recombinant WT CAC, pH 6.5, 10 min incubation; read-out: IC50 for inhibition of transport at pH 6.5
# T2 construct: made in house; host or cells: E. coli C0214
# T2 sequence (P97521 1-301): T1 sequence (P97521 1-301 C23V/C58V/C89S/C136V/C155V/C283S) with V23C, V58C, S89C, V136C, V155C, S283C
# Method: as §1, §2, §3
# Figure 1 Effect of itaconate on the native and recombinant mitochondrial carnitine/acylcarnitine (CAC). Dose–response analysis for itaconate inhibition was carried out using proteoliposomes reconstituted with native (○) or recombinant (●) CAC carriers. After 10 min of itaconate incubation, transport activity was started by adding 0.1 mM [^3H]carnitine and stopped after 10 min as described in Section 2. Percent of residual activity with respect to the control, without itaconate treatment, was reported. The values are the means ± SD from three independent experiments.
# Figure 2 Effect of different pH on the inhibition of CAC protein by itaconate. (a) Proteoliposomes reconstituted with the recombinant CAC were incubated at various pHs (range pH 6.5–8.5) for 10 min with 10 mM itaconate. (b) Dose–response analysis of inhibition by itaconate of the recombinant CAC at pH 6.5. was performed. Proteoliposomes were incubated for 10 min at pH 6.5 with itaconate at the indicated concentrations. In both (a,b), the transport activity was measured for 10 min by adding to proteoliposomes 0.1 mM [^3H]carnitine.
# CAC from HeLa cells = biological target: T3, CAC from HeLa cells (Homo sapiens, UniProt O43772); assay: HeLa cells treated with DMI, CAC extracted from mitochondria and reconstituted for transport assay; assay type: cell-based; conditions: 10 mM DMI, 45 min
# T3 construct: CAC from mitochondria protein extract of HeLa cells treated with 10 mM DMI or vehicle (control) was reconstituted in proteoliposomes; endogenous in cells; host or cells: HeLa cells
# T3 sequence (O43772 1-301): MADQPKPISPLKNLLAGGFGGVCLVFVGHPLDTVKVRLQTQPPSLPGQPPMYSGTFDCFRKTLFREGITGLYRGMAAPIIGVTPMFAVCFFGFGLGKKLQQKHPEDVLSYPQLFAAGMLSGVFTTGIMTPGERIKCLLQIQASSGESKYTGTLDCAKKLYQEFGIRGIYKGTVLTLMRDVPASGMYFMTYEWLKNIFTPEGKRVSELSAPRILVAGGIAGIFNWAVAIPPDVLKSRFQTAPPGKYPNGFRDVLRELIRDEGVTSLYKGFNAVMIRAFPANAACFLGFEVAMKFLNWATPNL
# Description: as §2
# To test the transport activity of the CAC, 550 μL of proteoliposomes was passed through a Sephadex G-75 column to remove the external substrate. […] Transport rates were measured in 10 min, i.e., within the initial linear range of the time course, at 25 °C. After terminating the transport reaction, the external substrate was removed by chromatography on the Sephadex G-75 column, and the intraliposomal radioactivity was measured. […]
# Figure 10 Effect of dimethyl itaconate (DMI) on CAC. […] Thus, the transport activity was measured for 10 min by adding to proteoliposomes 0.1 mM [^3H]carnitine. […] Transport activity in the presence or absence of DTE was measured as described in Materials and Methods. […]
inhibition at 30000 µM ([1]; 30 mM PLP for 10 min),"reversibility of inhibition after removal of PLP by size exclusion chromatography (G-75) ([1]; 30 mM PLP, then G-75)",IC50 (recombinant CAC (WT)),CAC transport activity after treatment of cells (CAC from HeLa cells),reversal of inhibition by DTE (CAC from HeLa cells; DTE in transport assay),Structure (SMILES)
~75%,fully reversed,–,–,–,"Cc1ncc(COP(=O)(O)O)c(C=O)c1O [PLP, pyridoxal 5′-phosphate, reference compound]"
–,–,20 ± 4.9 mM,strongly inhibited,could not be reversed,C=C(CC(=O)OC)C(=O)OC [dimethyl itaconate]

# Reference: publication PMC10296061, “Inhibition of the Mitochondrial Carnitine/Acylcarnitine Carrier by Itaconate through Irreversible Binding to Cysteine 136: Possible Pathophysiological Implications” (Biomolecules, 2023)
